Measurements: US20080152632A1, “Promoter-reporter cells for determining drug metabolism, drug interactions, and the effects of allotype variation” (Roslin Institute, priority 2005, published 2008)

Tested on: AFP promoter in hepatocyte lineage cells
Assay: AFP-eGFP reporter signaling in hepatocyte lineage cells generated using Activin
Assay type: cell-based, human
Conditions: H1-LZ-hAFP-eGFP derived cells; factor in HCM medium with HGF and EGF (1 μM dexamethazone from Day 11; 25 ng/mL Oncostatin M from Day 20)
Protocol: The H1-LZ-hAFP-eGFP line of hES cells (Example 2) were expanded in mEF conditioned medium supplemented with 8 ng/mL bFGF on Matrigel™-coated plates. Once they reached 90-95% confluence, the cells were fed and cultured for one day (designated Day 1) with RPMI 1640 containing B27 supplement without vitamin A (GibcoBRL/Invitrogen # 12587-010), 1 mM sodium butyrate (Sigma Cat. no. B5887), and 100 ng/mL Activin A (R&D Systems #338-AC-025), and then for another two days in the same medium except having 0.5 mM sodium butyrate (Stage I). There was substantial cell death, with the remaining cells now having mesenchymal cell morphology, and some forming rosettes.
Starting on Day 4, the cells were fed daily with Knockout DMEM (GibcoBRL/Invitrogen #10829-018) containing 20% Knockout Serum Replacement (GibcoBRL/Invitrogen #10828-028), 2 mM L-glutamine, 1×nonessential amino acids, 0.1 mM β-mercaptoethanol, and 1% DMSO (Stage II). […] Starting on Day 20, the cells were fed on alternate days with HCM Bullet Kit, supplemented with 10 ng/mL human HGF, 10 ng/mL human EGF, and 25 ng/mL human Oncostatin M (Stage V).
In response to the medium components introduced on Day 11, about 60-70% of the cells began expressing eGFP, peaking by Day 19 or 20. Following the change of medium components on […], eGFP expression gradually disappeared.

Molecule	AFP-eGFP reporter expression
C[C@@H]1C[C@H]2[C@@H]3CCC4=CC(=O)C=C[C@]4(C)[C@@]3(F)[C@@H](O)C[C@]2(C)[C@@]1(O)C(=O)CO [dexamethazone]	expressed
Oncostatin M: human Oncostatin M, late differentiation factor (protein, UniProt P13725 26-221, looked up) Oncostatin-M: AAIGSCSKEYRVLLGQLQKQTDLMQDTSRLLDPYIRIQGLDVPKLREHCRERPGAFPSEETLRGLGRRGFLQTLNATLGCVLHRLADLEQRLPKAQDLERSGLNIEDLEKLQMARPNILGLRNNIYCMAQLLDNSDTAEPTKAGRGASQPPTPTPASDAFQRKLEGCRFLHGYHRFMHSVGRVFSKWGESPNRSRR	decreased
